# Assay results taken from US20150285817A1 (priority 2014, published 2015).
# Read-outs that look alike come from different tables or passages of the source.
# Test system: NSCLC patients
# Details: VeriStrat poor patients, SCR samples
# From the text: Briefly, by way of overview, 188 patients were enrolled in the study. Key entry criteria for the study were Stage III/IV NSCLC, treatment-naïve, adenocarcinoma histology, with the patients selected from an Asian population and being either non-smokers or light former smokers. Stratification of the population was based on Eastern Cooperative Oncology Group Performance Status (ECOG PS), smoking history, and gender.
# In summary, we obtained pre-treatment serum samples from all 188 patients enrolled in the study described above. The samples were blinded and subject to MALDI-TOF mass-spectrometry. The resulting mass spectra were subject to predefined pre-processing steps, described below, and integrated intensity values at pre-defined m/z positions ranges, (i.e., feature values) in the pre-processed spectra were obtained. […]
# The pre-treatment serum samples used in the foregoing analysis were largely derived from patient blood samples originally drawn immediately prior to drug dosing (hereafter called “C1D1” samples) in order to define baselines for drug pharmacokinetics and pharmacodynamics. Subsequently, a set of blood samples was analyzed, these being derived from blood draws taken from 1-12 days (median 4.4 days) prior to drug dosing (hereafter called “SCR” samples) for purposes of establishing patient eligibility for study with respect to blood chemistries.
compound,measurement,setting,value
COc1cc2ncnc(Nc3ccc(F)c(Cl)c3)c2cc1OCCCN1CCOCC1 [gefitinib],median PFS,EGFR SM+ population,4.1 months
same,median PFS,ITT population,2.7 months
